In PubChem BioAssay (NCI) one finds TGI and GI50 data, which are given here for eleven compounds.

What all share (assay): NCI anticancer screen, dose series, 48 h
Assay [1] relates to A498 renal.
Assay [2] relates to HOP-62 NSCLC.
Assay [3] deals with HT29 colon.
The subject of assay [4] is IGROV1 ovarian.
Assay [5] concerns KM12 colon.
Assay [6] deals with MOLT-4 leukemia.
Assay [7] concerns NCI-H460 lung.
Assay [8] concerns NCI-H522 lung.
Assay [9] concerns OVCAR-8 ovarian.
The subject of assay [10] is SNB-19 CNS.

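Test compounds were applied to cells in 96-well plates for 48 hours at 5 doses. GI50 marks 50% less growth. TGI is the concentration that stops growth completely.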

For `Cc1ccc(NC(=O)CCc2n[nH]c(=S)o2)cc1`, the TGI in [1], in assay [2], in assay [3], in [4], in [5] and in [6] was > 100 µM throughout. The TGI in assay [7], in assay [8], in assay [9] and in [10] was > 100 µM each time.
Take `CN(C)c1cccc(F)c1C(=O)NC(=O)Nc1ccc(Cl)cc1`: the TGI was > 74.8 µM in [1]; > 100 µM in assay [2]; > 23.2 µM in assay [3]; > 100 µM in [4]; > 100 µM in [5]; > 100 µM in assay [6]. Besides, the TGI in assay [7] was > 100 µM; in assay [8], 5.77 µM; in [9] it was > 86.4 µM; in assay [10], > 100 µM.
`CN(CCCCCl)P(=O)(OCc1ccc([N+](=O)[O-])o1)OCC1OC(n2cnc([N+](=O)[O-])c2N)C(O)C1O` (stereo not given): the GI50 in [1] is > 100 µM; in [2], > 100 µM; in [3] it was > 100 µM; in assay [4], > 100 µM; in [5] it was 90.7 µM; in [6] it was > 100 µM. The GI50 in assay [7], in assay [8], in assay [9] and in [10] was > 100 µM each time. In addition, the TGI in assay [1], in assay [2], in [3], in [4], in assay [5] and in [6] was > 100 µM throughout. Further, the TGI in [7], in assay [8], in [9] and in [10] was > 100 µM each time.
For `O=C(O)c1c(Br)c(Br)c(Br)c(Br)c1C1c2ccc(O)cc2Oc2cc(O)ccc21`, the TGI in [1], in assay [2], in assay [3], in assay [4], in assay [5] and in assay [6] was > 100 µM each time. Further, the TGI in assay [7], in assay [8], in [9] and in [10] was > 100 µM in each case.
Turning to `NC1(Cc2ccc(Cl)cc2)CCN(c2ncnc3[nH]ccc23)CC1`, the GI50 in assay [1] was 0.546 µM; in assay [2], 3.63 µM; in assay [3], 3.7 µM; in assay [4], 1.01 µM; in [5], 3.02 µM; in [6], 1.91 µM. Further, the GI50 in assay [7] was 2.31 µM; in [8], 12.6 µM; in [9], 11.1 µM; in assay [10], 5.33 µM. Besides, the TGI in assay [1] worked out at 4.58 µM; in [2] it was 17.2 µM; in [3], 17.8 µM; in assay [4] it was 7.8 µM; in assay [5], 13.9 µM; in assay [6], 17.3 µM. Moreover, the TGI in assay [7] came to 13.3 µM; in [8] it was 27.7 µM; in assay [9], 25.4 µM; in [10], 21.3 µM.
Turning to `COc1ccc(-c2c3c(nc4n[nH]c(-c5ccc(Cl)cc5)c24)-c2ccccc2C(=O)C3=O)cc1`, the GI50 in [1] is 3.72 µM; in assay [2] it was 1.56 µM; in [3], 1.87 µM; in [4] it was 1.54 µM; in assay [5], 1.62 µM; in assay [6], 2.44 µM. The GI50 was 1.52 µM in [7], 1.43 µM in assay [8], 1.59 µM in assay [9] and 1.83 µM in assay [10]. The TGI worked out at 17.6 µM in assay [1]; 2.96 µM in assay [2]; 3.4 µM in [3]; 3.22 µM in assay [4]; 3.16 µM in [5]; 14.9 µM in [6]. The TGI in [7] stood at 3.24 µM; in assay [8], 2.99 µM; in assay [9], 3.44 µM; in assay [10] it was 3.7 µM.
For `Cc1ccc(C2NC(=O)c3ccccc3N2)c(C)c1` (stereo not given), the TGI in [1] was 34.9 µM; in assay [2] it was > 100 µM; in [3], 34.9 µM; in [4], > 100 µM; in [5] it was > 100 µM; in assay [6], > 100 µM. Besides, the TGI in assay [7] is > 100 µM; in assay [8], 4.91 µM; in assay [9], > 71.5 µM; in assay [10], > 40.8 µM.
With `N#CC1=C(O)NC(O)=C(C#N)C1c1ccc(C2C(C#N)=C(O)NC(O)=C2C#N)cc1`, the TGI in [1], in assay [2], in assay [3], in [4], in [5] and in assay [6] was > 100 µM in each case. The TGI is > 100 µM in assay [7], 43.6 µM in assay [8], > 100 µM in assay [9] and > 100 µM in [10].
For `CC(=O)OC1=CC2(OC(C)=O)CC(C)(C)C1C1C(=O)C=CC(=O)C12` (stereo not given), the TGI in assay [1] was > 100 µM; in assay [2] it was > 100 µM; in [3] it was 47.9 µM; in [4] it was > 100 µM; in [5] it was > 100 µM; in assay [6], > 100 µM. Also, the TGI in assay [7] is > 100 µM; in assay [8], > 52.4 µM; in assay [9], > 100 µM; in assay [10] it was > 100 µM.
As to `CC1=Nc2c([nH]c(=S)[nH]c2=O)NC(c2c(Cl)cccc2Cl)C1` (stereo not given), the TGI stood at 6.68 µM in assay [1]; 13.6 µM in assay [2]; 2.35 µM in [3]; 5.45 µM in [4]; 4.51 µM in assay [5]; 5.43 µM in assay [6]. In addition, the TGI in [7] was determined as 5.64 µM; in assay [8] it was 7.33 µM; in assay [9], 1.85 µM; in [10] it was 6.37 µM.
Consider `CC(=O)NC(C=O)C(O[C@H](C)C(=O)NC(C)C(=O)NC(CCC(N)=O)C(=O)OCc1ccccc1)C(O)C(O)COC(=O)CCNc1c2ccccc2nc2cccc([N+](=O)[O-])c12` (stereo not given in full), for which the TGI was > 100 µM in assay [1]; 10.2 µM in assay [2]; 7.88 µM in assay [3]; > 100 µM in assay [4]; 3.75 µM in assay [5]; 14.8 µM in assay [6]. Also, the TGI is 3.44 µM in assay [7], 4.49 µM in assay [8], 18.7 µM in assay [9] and 17.4 µM in assay [10].
